Test results from patent publication US9505724B2, “4-amino substituted condensed pyrimidine compounds as PDE4 inhibitors” (GRÜNENTHAL GMBH, priority 2013, dated 2016).
Where a name gives a salt, the structure may show the parent alone. Read-outs that look alike come from different tables or passages of the source.

Key:
human PDE4B1 = molecular target: T1, human PDE4B1 (Homo sapiens, UniProt Q07343); assay: cAMP HTRF assay to determine the activity of hPDE4B1; format: biochemical; conditions: read-out: PDE4B IC50
T1 construct: host or cells: Sf9 cells
Experimental: 1. Determination of the PDE4B IC50 Values with a cAMP HRTF® Assay to Determine the Activity of hPDE4B1
The inhibiting effect of the compounds on the enzyme activity of human PDE4B1 is measured by the quantification of 5′-AMP, which is formed from 3′,5′-adenosine monophosphate (cAMP). Human recombinant enzyme, expressed in Sf9 cells, and the HTRF (homogeneous time-resolved fluorescence) detection method are used in the assay.
The test compound or water (control) is mixed with the human recombinant PDE4B1 enzyme (4.8 U) in a buffer consisting of 44.4 mM tris-HCl, 5.28 mM MgCl2, 2.64 mM DTT and 0.044% Tween 20 (pH 7.8). After adding the cAMP enzyme substrate (final concentration 40 nM) the mixture is incubated for 30 minutes at room temperature. Then a fluorescence acceptor (Dye2 marked with cAMP), a fluorescence donor (anti-cAMP antibody marked with a europium cryptate) and the non-specific phosphodiesterase inhibitor IBMX (3-isobutyl-1-methylxanthine; final concentration 1 mM) are added. After 60 minutes the fluorescence transfer, which correlates with the amount of remaining cAMP, is measured with a microplate reader (Rubystar, BMG) at λex=337 nm, λem=620 nm and λεm=665 nm. The enzyme activity is calculated from the quotient formed from the measured signal at 665 nm and that at 620 nm. The result is expressed as the percentage inhibition of enzyme activity of the control (without PDE4 inhibitor) (literature: N. Saldou et al., Comparison of recombinant human PDE4 isoforms: interaction with substrate and inhibitors, Cell. Signal. Vol. 10, No. 6, 427-440, 1998). The enzyme is omitted for measurement of the basal control. The averaged results are set out in Table 5.

human recombinant PDE4D2 = human recombinant PDE4D2 (Homo sapiens, UniProt Q08499); assay: cAMP HTRF assay to determine the activity of hPDE4D2; format: biochemical
Experimental: 2. Determination of the PDE4D-IC50 Values with a cAMP HRTF® Assay to Determine the Activity of hPDE4D2
The further procedure and evaluation are performed in exactly the same way as in the above description of the cAMP HTRF® assay for PDE4B.

[1] = human recombinant PDE4B1, cAMP 40 nM, averaged results (Table 5)
[2] = comparative experiments, re-synthesised prior-art compounds (Table 6)

T1 sequence (Q07343 whole entry): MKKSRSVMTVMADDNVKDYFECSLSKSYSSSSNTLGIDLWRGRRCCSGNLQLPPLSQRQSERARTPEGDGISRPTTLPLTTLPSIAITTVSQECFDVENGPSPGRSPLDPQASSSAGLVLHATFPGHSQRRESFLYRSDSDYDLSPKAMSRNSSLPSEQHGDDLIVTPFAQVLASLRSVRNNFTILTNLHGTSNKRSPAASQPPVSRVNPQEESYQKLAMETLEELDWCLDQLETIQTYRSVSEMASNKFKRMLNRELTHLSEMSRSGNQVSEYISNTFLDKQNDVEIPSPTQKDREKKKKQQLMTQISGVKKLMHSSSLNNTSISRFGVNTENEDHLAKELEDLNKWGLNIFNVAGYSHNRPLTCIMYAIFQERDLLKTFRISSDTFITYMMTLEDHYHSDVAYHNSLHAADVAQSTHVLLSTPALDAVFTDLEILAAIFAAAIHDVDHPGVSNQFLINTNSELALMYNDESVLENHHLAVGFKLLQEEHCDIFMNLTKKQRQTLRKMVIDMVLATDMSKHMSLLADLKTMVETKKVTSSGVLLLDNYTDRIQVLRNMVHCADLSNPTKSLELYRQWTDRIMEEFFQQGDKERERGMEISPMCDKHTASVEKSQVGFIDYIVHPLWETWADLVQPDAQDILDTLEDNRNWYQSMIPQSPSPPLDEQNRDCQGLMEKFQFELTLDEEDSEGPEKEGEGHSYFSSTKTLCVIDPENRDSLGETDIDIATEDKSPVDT
human recombinant PDE4D2, sequence (Q08499 303-809): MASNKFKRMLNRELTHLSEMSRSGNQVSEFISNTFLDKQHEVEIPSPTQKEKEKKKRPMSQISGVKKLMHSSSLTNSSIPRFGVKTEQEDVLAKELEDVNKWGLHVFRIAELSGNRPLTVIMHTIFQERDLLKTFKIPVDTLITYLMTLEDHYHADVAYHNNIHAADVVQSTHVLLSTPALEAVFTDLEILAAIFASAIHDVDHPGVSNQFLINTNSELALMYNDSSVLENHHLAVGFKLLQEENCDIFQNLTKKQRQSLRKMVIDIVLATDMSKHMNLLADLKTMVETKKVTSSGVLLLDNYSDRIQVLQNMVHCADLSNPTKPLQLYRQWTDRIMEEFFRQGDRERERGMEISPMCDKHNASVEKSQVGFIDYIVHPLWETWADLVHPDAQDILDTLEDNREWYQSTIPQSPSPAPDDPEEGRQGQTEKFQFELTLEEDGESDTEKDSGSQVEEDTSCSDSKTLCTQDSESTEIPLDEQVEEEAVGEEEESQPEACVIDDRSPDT

IC50 (human PDE4B1; [1]) | SMILES | other results
490 nM | O=C(O)Cc1ccc(Nc2nc(-c3ccc(OC(F)F)cc3)nc3c2CCC3)cc1 [Compound 5, 2-(4-(2-(4-(Difluoromethoxy)phenyl)-6,7-dihydro-5H-cyclopenta[d]pyrimidin-4-ylamino)phenyl)acetic acid] | 
140 nM | COc1ccc(-c2nc3c(c(Nc4ccc(C(=O)O)cc4)n2)CCC3)cc1Cl [Compound 14, 4-(2-(3-Chloro-4-methoxyphenyl)-6,7-dihydro-5H-cyclopenta[d]pyrimidin-4-ylamino)benzoic acid] | melting point: > 260 °C
 | C=CCc1c(C)nc(-c2ccccc2)nc1Nc1ccc(C(=O)O)cc1 [Compound S2, reference compound] | IC50 (human PDE4B1; [2]): 1100 nM; IC50 (human recombinant PDE4D2): 1300 nM
190 nM | O=C(O)Cc1ccc(Nc2nc(-c3ccc(F)c(F)c3)nc3c2CCC3)cc1 [Compound 2, 2-(4-(2-(3,4-Difluorophenyl)-6,7-dihydro-5H-cyclopenta[d]pyrimidin-4-ylamino)phenyl)acetic acid] | 
70 nM | COc1ccc(-c2nc3c(c(Nc4ccc(CC(=O)O)cc4)n2)CCC3)cc1Cl [Compound 4, 2-(4-(2-(3-Chloro-4-methoxyphenyl)-6,7-dihydro-5H-cyclopenta[d]pyrimidin-4-ylamino)phenyl)acetic acid] | 
 | C=CCc1c(C)nc(-c2ccc(OC)cc2)nc1Nc1ccc(CC(=O)O)cc1 [Compound S1, reference compound] | IC50 (human PDE4B1; [2]): 3600 nM; IC50 (human recombinant PDE4D2; comparative experiments, re-synthesised prior-art compounds (Table 6), read-out: PDE4D IC50): > 10000 nM
660 nM | O=C(O)Cc1ccc(Nc2nc(-c3ccc(Br)cc3)nc3c2CCC3)cc1 [Compound 1, 2-(4-(2-(4-Bromophenyl)-6,7-dihydro-5H-cyclopenta[d]pyrimidin-4-ylamino)phenyl)acetic acid] | 
600 nM | CCOc1ccc(-c2nc3c(c(Nc4ccc(CC(=O)O)cc4)n2)CCC3)cc1 [Compound 7, 2-(4-(2-(4-Ethoxyphenyl)-6,7-dihydro-5H-cyclopenta[d]pyrimidin-4-ylamino)phenyl)acetic acid] | 
210 nM | COc1ccc(-c2nc3c(c(Nc4ccc(C(=O)O)cc4)n2)CCC3)cc1F [Compound 13, 4-(2-(3-Fluoro-4-Methoxyphenyl)-6,7-Dihydro-5H-Cyclopenta[d]pyrimidin-4-ylamino)benzoic acid] | melting point: > 260 °C
690 nM | O=C(O)Cc1ccc(Nc2nc(-c3ccccc3)nc3c2CCC3)cc1 [Compound 16, 2-(4-(2-Phenyl-6,7-dihydro-5H-cyclopenta[d]pyrimidin-4-ylamino)phenyl)acetic acid] | 
550 nM | O=C(O)Cc1ccc(Nc2nc(-c3cccc(Cl)c3)nc3c2CCCC3)cc1 [Compound 12, 2-(4-(2-(3-Chlorophenyl)-5,6,7,8-tetrahydroquinazolin-4-ylamino)phenyl)acetic acid] | 
210 nM | O=C(O)Cc1ccc(Nc2nc(-c3cccc(F)c3)nc3c2CCC3)cc1 [Compound 17, 2-(4-(2-(3-Fluorophenyl)-6,7-dihydro-5H-cyclopenta[d]pyrimidin-4-ylamino)phenyl)acetic acid] | 
2140 nM | O=C(O)c1ccc(Nc2nc(-c3cccc(Cl)c3)nc3c2CCCC3)cc1 [Compound 19, 4-(2-(3-Chlorophenyl)-5,6,7,8-tetrahydroquinazoline-4-ylamino)benzoic acid] | 
120 nM | COc1ccc(-c2nc3c(c(Nc4ccc(CC(=O)O)cc4)n2)CCC3)cc1F [Compound 3, 2-(4-(2-(3-Fluoro-4-methoxyphenyl)-6,7-dihydro-5H-cyclopenta[d]pyrimidin-4-ylamino)phenyl)acetic acid] | 
390 nM | O=C(O)c1ccc(Nc2nc(-c3ccc(F)c(F)c3)nc3c2CCC3)cc1 [Compound 15, 4-(2-(3,4-Difluorophenyl)-6,7-dihydro-5H-cyclopenta[d]pyrimidin-4-ylamino)benzoic acid] | melting point: > 260 °C
740 nM | O=C(O)Cc1ccc(Nc2nc(-c3ccc4occc4c3)nc3c2CCC3)cc1 [Compound 2-1, 2-(4-(2-(Benzofuran-5-yl)-6,7-dihydro-5H-cyclopenta[d]pyrimidin-4-ylamino)phenyl)acetic acid] | 
640 nM | O=C(O)c1ccc(Nc2nc(-c3cccc(Cl)c3)nc3c2CCC3)cc1 [Compound 11, 4-(2-(3-Chlorophenyl)-6,7-dihydro-5H-cyclopenta[d]pyrimidin-4-ylamino)benzoic acid] | 
300 nM | O=C(O)Cc1ccc(Nc2nc(-c3cccc(Cl)c3)nc3c2CCC3)cc1 [Compound 10, 2-(4-(2-(3-Chlorophenyl)-6,7-dihydro-5H-cyclopenta[d]pyrimidin-4-ylamino)phenyl)acetic acid] | 
220 nM | O=C(O)Cc1ccc(Nc2nc(-c3cccc(Br)c3)nc3c2CCC3)cc1 [Compound 18, 2-(4-(2-(3-Bromophenyl)-6,7-dihydro-5H-cyclopenta[d]pyrimidin-4-ylamino)phenyl)acetic acid] | 
3100 nM | O=C(O)Cc1ccc(Nc2nc(-c3ccc(OC(F)(F)F)cc3)nc3c2CCC3)cc1 [Compound 6, 2-(4-(2-(4-(Trifluoromethoxy)phenyl)-6,7-dihydro-5H-cyclopenta[a]pyrimidin-4-ylamino)phenyl)acetic acid] | 

SMILES | IC50 (human PDE4B1; [1]) | other results
COc1ccc(-c2nc3c(c(Nc4ccc(CC(=O)O)cc4)n2)CCC3)cc1 [Compound 8, 2-(4-(2-(4-Methoxyphenyl)-6,7-dihydro-5H-cyclopenta[d]pyrimidin-4-ylamino)phenyl)acetic acid as 2,2,2-trifluoroacetic acid addition salt] | 380 nM | 
O=C(O)Cc1ccc(Nc2nc(-c3ccc(Cl)cc3)nc3c2CCC3)cc1 [Compound 9, 2-(4-(2-(4-Chlorophenol)-6,7-dihydro-5H-cyclopenta[d]pyrimidin-4-ylamino)phenyl)acetic acid as 2,2,2-trifluoroacetic acid addition salt] | 880 nM | 
